{"source": "patent US12358894B2", "about": "(priority 2019, dated 2025)", "test_system": "pathogens of rice blast", "assay_type": "cell-based", "details": "test solution 2000 ppm, 1,000 μl on oatmeal culture medium, 4-mm rice blast disc, 25° C., 6 days; calculated from elongation length of hyphae with vs without treatment", "data": [{"smiles": "COc1nc(-n2cccn2)nc(F)c1C(F)(F)F", "note": "[Example 1, 6-fluoro-4-methoxy-2-(1-pyrazolyl)-5-(trifluoromethyl)pyrimidine]", "values": [{"measurement": "Preventive value", "value": 100}]}]}
